Columns and labels:
[1] = AD solubility in crystallization solvents; type: physicochemical
[2] = Stability of aqueous AD solutions versus pH; type: physicochemical

AD content the solvent can contain ([1]; methanol or CH2Cl2): more than 50%
upper limit of solubility of AD ([1]; most crystallization solvents at room temperature): 10-41%
solubility ([1]; organic solvent or mixture, in di-n-butyl ether): < 300 µg/mL
pH of maximum stability [2]: 3-5
SMILES: CC(C)(C)C(=O)OCOP(=O)(COCCn1cnc2c(N)ncnc21)OCOC(=O)C(C)(C)C [AD, 9-[2-[[bis[(pivaloyloxy)methyl]phosphono]methoxy]ethyl]adenine]
